From patent US12655135B2, “Benzo seven-membered ring bifunctional compound and application thereof” (CHIA TAI TIANQING PHARMACEUTICAL GROUP CO., LTD., priority 2021, dated 2026)

Each molecule was assayed against T1, ERα (Homo sapiens, UniProt P03372) (assay: MCF-7 ERα degradation experiment (Human Total ERα ELISA, 4 h incubation)). Settings: MCF-7 cells, 4 h incubation at 37° C., ERα by ELISA; Max well 100 nM FUL, Min well 0.5% DMSO; read-out: Degradation of ERα by compounds DC50.
T1 construct: endogenous in cells; host or cells: MCF-7
T1 sequence (P03372 1-595): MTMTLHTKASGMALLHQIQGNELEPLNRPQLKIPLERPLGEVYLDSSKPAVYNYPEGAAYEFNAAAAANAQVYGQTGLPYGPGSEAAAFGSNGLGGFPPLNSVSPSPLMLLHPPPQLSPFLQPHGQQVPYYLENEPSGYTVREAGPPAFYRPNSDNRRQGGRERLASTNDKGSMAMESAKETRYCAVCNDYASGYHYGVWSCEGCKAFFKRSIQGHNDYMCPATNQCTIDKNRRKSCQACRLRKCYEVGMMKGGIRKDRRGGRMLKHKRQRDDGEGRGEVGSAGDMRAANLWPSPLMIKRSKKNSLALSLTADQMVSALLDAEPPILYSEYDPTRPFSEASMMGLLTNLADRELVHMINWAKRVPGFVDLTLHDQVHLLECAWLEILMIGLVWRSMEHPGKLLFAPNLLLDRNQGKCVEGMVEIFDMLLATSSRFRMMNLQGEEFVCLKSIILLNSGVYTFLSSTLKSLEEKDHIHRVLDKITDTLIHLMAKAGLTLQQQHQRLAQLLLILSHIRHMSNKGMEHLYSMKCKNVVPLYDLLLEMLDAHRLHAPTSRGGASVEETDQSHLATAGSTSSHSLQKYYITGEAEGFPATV
Assay type: cell-based
Procedure: Experimental Example 1: MCF-7 ERα Degradation Experiment
Compounds were tested for their ability to degrade ERα receptors under experimental conditions.
Phenol red-free MEM medium was purchased from Wisent, fetal bovine serum was purchased from Biosera, and Human Total ERα/NR3A1 ELISA kits were purchased from R&D. MCF-7 cell line was purchased from the Cell Bank of Type Culture Collection Committee of the Chinese Academy of Sciences. Nivo5 multi-marker analyzer (PerkinElmer).
• 1. MCF-7 cells were resuspended in medium (phenol red-free MEM+5% Charcoal Dextran Stripped FBS+1% PS), seeded in a 96-well clear cell culture plate, and incubated overnight in a carbon dioxide incubator; • 2. ELISA plate was coated with stripes, Human Total ERα Capture Antibody was diluted with 1×PBS, and the plate was incubated at 25° C. overnight. Day Two: • 1. Cell administration: The compounds to be tested were diluted to the 8th concentration. The concentration of the compound was 20 μM, and the compound was diluted successively to the 8th concentration of 0.256 nM at 4 μM. Two duplicate wells were set. The compound was transferred to the intermediate plate and then to the cell plate to give a final DMSO concentration of 0.5% per well, and the plate was incubated at 37° C. for 4 h; • 2. preparation of standard curve solution: 110 ng/mL of standard curve stock solution was 6-fold diluted with buffer #8 to give a solution with a concentration of 18.3 ng/mL. Then, 8-point gradient dilution was performed using buffer #3 with a final concentration of 200 pg/mL to 1.56 pg/mL; • 3. the ELISA plate was washed 3 times with a washing solution (1×PBS containing 0.05% Tween); • 4. 300 μL of blocking solution (1×PBS containing 1% BSA) was added to each well, and the plate was incubated at 25° C. for 2 h; • 5. 1×PBS was pre-cooled. After the incubation of the compound, the supernatant was removed, the plate was washed with pre-cooled 1×PBS, the cell lysate was added, and the cells were lysed on ice for 15 min; • 6. the blocking solution was removed from the ELISA plate, the plate was washed, and step 3 was repeated; • 7. after the cells were lysed, in the cell plate, the cell lysate was 6-fold diluted with 150 μL of buffer #8 per well, the mixture was pipetted and mixed well, and 100 μL of solution per well was transferred to the ELISA plate; • 8. at the same time, 100 μL of Standard per well was transferred to the ELISA plate and incubated overnight at 25° C. Day Three: • 1. The supernatant was removed, and the plate was washed 3 times with a washing solution; • 2. Human Total ERα Detection Antibody stock solution ([…]) was 36-fold diluted with buffer #1 (1×PBS containing 1% BSA), and the final concentration of Detection Antibody was 400 ng/mL. 100 μL/well of the solution was transferred to the ELISA plate, and the plate was incubated at 25° C. for 2 h; • 3. the plate was washed with buffer #1; • 4. Streptavidin-HRP A was 200-fold diluted with buffer #1 (1×PBS containing 1% BSA), 100 μL/well of the solution was transferred to the ELISA plate, and the plate was incubated at 25° C. for 20 min; • 5. the plate was washed with buffer #1; • 6. 100 μL of Substrate Solution per well (1:1 mixture of reagent A (H2O2) and reagent B (tetramethylbenzidine)) was added to the ELISA plate, and the plate was incubated at 25° C. for 20 min; • 7. […] of stop solution was added and the OD450 absorbance was read on a plate reader. Data Analysis: […]
For `O=C1CCC(N2Cc3cc(N4CCN(CCCCCOc5ccc(C6=C(c7ccccc7)CCCc7cc(O)ccc76)cc5)CC4)ccc3C2=O)C(=O)N1` (centres unmarked) [Compound 1], the DC50 was 0.84 nM.
`O=C1CCC(N2Cc3cc(N4CCN(CC5CCN(c6ccc(C7=C(c8ccccc8)CCCc8cc(O)ccc87)cc6)CC5)CC4)ccc3C2=O)C(=O)N1` (centres unmarked) [Compound 2] showed a DC50 of 2.69 nM.
For `O=C1CCC(N2Cc3cc(N4CCN(CC5CCN(c6ccc(C7=C(c8ccc(Cl)cc8Cl)CCCc8cc(C(=O)O)ccc87)cc6)CC5)CC4)ccc3C2=O)C(=O)N1` (centres unmarked) [Compound 3], the DC50 was 5.8 nM.
With `O=C1CC[C@H](N2Cc3cc(N4CCN(CCC5CCN(c6ccc(C7=C(c8ccccc8)CCCc8cc(O)ccc87)cc6)CC5)CC4)ccc3C2=O)C(=O)N1` [Compound 4] the DC50 was 1.5 nM.
`O=C1CC[C@H](N2Cc3cc(N4CCN(CC5CCN(c6ccc(C7=C(c8ccc(Cl)cc8)CCCc8cc(O)ccc87)cc6)CC5)CC4)ccc3C2=O)C(=O)N1` [Compound 5] showed a DC50 of 1.8 nM.
In the case of `O=C1CC[C@H](N2Cc3cc(N4CCN(CC5CCN(c6ccc(C7=C(c8ccc(F)cc8)CCCc8cc(O)ccc87)cc6)CC5)CC4)ccc3C2=O)C(=O)N1` [Compound 6], the DC50 is reported as 1 nM.
Work on `COc1ccc2c(c1)CCCC(c1ccccc1)=C2c1ccc(N2CCC(CN3CCN(c4ccc5c(c4)CN([C@H]4CCC(=O)NC4=O)C5=O)CC3)CC2)cc1` [Compound 7] yielded a DC50 of 8 nM.
Molecule `COc1ccc2c(c1)CCCC(c1ccc(F)cc1)=C2c1ccc(N2CCC(CN3CCN(c4ccc5c(c4)CN([C@H]4CCC(=O)NC4=O)C5=O)CC3)CC2)cc1` [Compound 8] has a DC50 of 8.3 nM.
Molecule `O=C1CC[C@H](N2Cc3cc(N4CCN(CC5CCN(c6ccc(C7=C(c8ccc(O)cc8)CCCc8cc(O)ccc87)cc6)CC5)CC4)ccc3C2=O)C(=O)N1` [Compound 9] has a DC50 of 0.4 nM.
For `COc1ccc2c(c1)OCCC(c1ccccc1)=C2c1ccc(N2CCC(CN3CCN(c4ccc5c(c4)CN([C@H]4CCC(=O)NC4=O)C5=O)CC3)CC2)cc1` [Compound 10], the DC50 was 5.7 nM.
`Cc1ccc(C2=C(c3ccc(N4CCC(CN5CCN(c6ccc7c(c6)CN([C@H]6CCC(=O)NC6=O)C7=O)CC5)CC4)cc3)c3ccc(O)cc3CCC2)cc1` [Compound 11] showed a DC50 of 1 nM.
For `O=C1CC[C@H](N2Cc3cc(N4CCN(CC5CCN(c6ccc(C7=C(c8ccccc8)CCCc8cc(C(=O)O)ccc87)cc6)CC5)CC4)ccc3C2=O)C(=O)N1` [Compound 12], the DC50 was 4.73 nM.
Molecule `O=C1CC[C@H](N2Cc3cc(N4CCN(CCC5CCN(c6ccc(C7=C(c8ccccc8)CCCc8cc(C(=O)O)ccc87)cc6)CC5)CC4)ccc3C2=O)C(=O)N1` [Compound 13] has a DC50 of 4.47 nM.
`O=C1CC[C@H](N2Cc3cc(N4CCN(CC5CCN(c6ccc(C7=C(c8ccccc8)CCCc8cc(O)ccc87)cc6)CC5)CC4)ccc3C2=O)C(=O)N1` [Compound 14] gave a DC50 of 1.1 nM.
With `O=C1CC[C@H](N2Cc3cc(N4CCN(CC5CCN(c6ccc(C7=C(c8ccc(C(F)(F)F)nc8)CCCc8cc(O)ccc87)cc6)CC5)CC4)ccc3C2=O)C(=O)N1` [Compound 15] the DC50 was 1.7 nM.
For `Cc1ccc(C2=C(c3ccc(N4CCC(CN5CCN(c6ccc7c(c6)CN([C@H]6CCC(=O)NC6=O)C7=O)CC5)CC4)cc3)c3ccc(O)cc3CCC2)cn1` [Compound 16], the DC50 was 7.7 nM.
Work on `O=C1CC[C@H](N2Cc3cc(N4CCN(CC5CCN(c6ccc(C7=C(c8ccc(C9CC9)nc8)CCCc8cc(O)ccc87)cc6)CC5)CC4)ccc3C2=O)C(=O)N1` [Compound 17] yielded a DC50 of 9.4 nM.
With `Cc1nn(C)cc1C1=C(c2ccc(N3CCC(CN4CCN(c5ccc6c(c5)CN([C@H]5CCC(=O)NC5=O)C6=O)CC4)CC3)cc2)c2ccc(O)cc2CCC1` [Compound 18] the DC50 was 4.6 nM.
`O=C1CC[C@H](N2Cc3cc(N4CCN(CC5CCN(c6ccc(C7=C(c8ccc(F)nc8)CCCc8cc(O)ccc87)cc6)CC5)CC4)ccc3C2=O)C(=O)N1` [Compound 19] gave a DC50 of 2.1 nM.
Molecule `O=C1CC[C@H](N2Cc3cc(N4CCN(CC5CCN(c6ccc(C7=C(c8ccncc8)CCCc8cc(O)ccc87)cc6)CC5)CC4)ccc3C2=O)C(=O)N1` [Compound 20] has a DC50 of 0.9 nM.
Molecule `O=C1CC[C@H](N2Cc3cc(N4CCN(CC5CCN(c6ccc(C7=C(c8cccnc8)CCCc8cc(O)ccc87)cc6)CC5)CC4)ccc3C2=O)C(=O)N1` [Compound 21] has a DC50 of 1.9 nM.
`Cc1ccc(C2=C(c3ccc(N4CCC(CN5CCN(c6ccc7c(c6)CN([C@H]6CCC(=O)NC6=O)C7=O)CC5)CC4)cc3)c3ccc(O)cc3CCC2)c(C)n1` [Compound 22] gave a DC50 of 2.4 nM.
In the case of `CC(C)(O)c1ccc(C2=C(c3ccc(N4CCC(CN5CCN(c6ccc7c(c6)CN([C@H]6CCC(=O)NC6=O)C7=O)CC5)CC4)cc3)c3ccc(O)cc3CCC2)cn1` [Compound 23], the DC50 is reported as 1.4 nM.
In the case of `O=C1CC[C@H](N2Cc3cc(N4CCN(CC5CCN(c6ccc(C7=C(c8ccc(OC(F)F)cc8)CCCc8cc(O)ccc87)cc6)CC5)CC4)ccc3C2=O)C(=O)N1` [Compound 24], the DC50 is reported as 0.7 nM.
`O=C1CC[C@H](N2Cc3cc(N4CCN(CC5CCN(c6ccc(C7=C(c8ccc(OC(F)(F)F)cc8)CCCc8cc(O)ccc87)cc6)CC5)CC4)ccc3C2=O)C(=O)N1` [Compound 25] gave a DC50 of 5.7 nM.
Molecule `O=C1CC[C@H](N2Cc3cc(N4CCN(CC5CCN(c6ccc(C7=C(c8ccc(OC9CC9)cc8)CCCc8cc(O)ccc87)cc6)CC5)CC4)ccc3C2=O)C(=O)N1` [Compound 26] has a DC50 of 1.7 nM.
